The structures appear in SMILES notation.

16 molecules from patent publication US11813306B2, “Cyclic tetramer compounds as proprotein convertase subtilisin/kexin type 9 (PCSK9) inhibitors for the treatment of metabolic disorders” (NOVARTIS AG, priority 2018, dated 2023) can be followed below.

For the experiment, the target named is human PCSK9 (Homo sapiens, UniProt Q8NBP7). The experiment in a line: PCSK9 ligand binding assay (TR-FRET): interference with binding of human PCSK9 to human LDLR. Particulars: for IC50: Human PCSK9 Alexa Fluor 647 / Human LDLR extracellular domain-Europium Kryptate; for Max % inhibition: efficacy (Amax), 100% = 1 uM unlabeled human PCSK9, 0% = DMSO. An outline of the steps:
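Read-out was TR-FRET ratio (665 nm over 615 nm, 330 nm excitation) between Alexa Fluor 647-human PCSK9 (16 nM added) and Europium Kryptate-human LDLR ectodomain (4 nM added). Compound and PCSK9 were mixed 30 min before LDLR, then incubated 2 h. Inhibition was normalised to DMSO and unlabelled-PCSK9 controls, giving IC50 and Amax.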

Chain of human PCSK9 (Q8NBP7 153-692): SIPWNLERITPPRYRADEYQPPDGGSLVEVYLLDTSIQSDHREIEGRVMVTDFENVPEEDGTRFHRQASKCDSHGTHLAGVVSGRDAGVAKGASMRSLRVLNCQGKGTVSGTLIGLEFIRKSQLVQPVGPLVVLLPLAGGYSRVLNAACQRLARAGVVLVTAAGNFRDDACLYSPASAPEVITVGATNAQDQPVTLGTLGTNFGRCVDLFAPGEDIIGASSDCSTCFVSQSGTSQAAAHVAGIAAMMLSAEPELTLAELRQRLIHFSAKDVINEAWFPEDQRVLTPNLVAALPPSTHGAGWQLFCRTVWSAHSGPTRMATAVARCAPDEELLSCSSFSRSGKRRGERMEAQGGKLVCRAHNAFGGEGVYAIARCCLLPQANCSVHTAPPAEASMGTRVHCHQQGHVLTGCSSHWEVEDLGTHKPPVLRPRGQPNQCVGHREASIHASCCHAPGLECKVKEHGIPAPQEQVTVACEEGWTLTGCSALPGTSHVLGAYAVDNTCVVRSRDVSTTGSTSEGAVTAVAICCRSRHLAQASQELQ
Chain of human PCSK9 (Q8NBP7 31-152 partner limits assumed): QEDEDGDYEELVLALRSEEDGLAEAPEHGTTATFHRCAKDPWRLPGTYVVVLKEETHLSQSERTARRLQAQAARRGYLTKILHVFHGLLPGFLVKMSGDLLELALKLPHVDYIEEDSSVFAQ

Broadly, the IC50 is the point on the concentration scale where inhibition reaches its midpoint. For `COC[C@@H]1NC(=O)[C@H](C)N(Cc2ccc(Cl)cc2Oc2ccc(-c3cnc(CN4CC[C@H](O)C4)n3C)cc2)C(=O)C[C@@H](Cc2ccccc2)C(=O)N2CCC[C@@](Cc3ccc(Cl)cc3)(C2)NC1=O.Cl` [Compound 59, (3R, 7S, 10S, 13R)-3-benzyl-6-(4-chloro-2-(4-(2-(((S)-3-hydroxypyrrolidin-1-yl)methyl)-1-methyl-1H-imidazol-5-yl)phenoxy)benzyl)-13-(4-chlorobenzyl)-10-(methoxymethyl)-7-methyl-1,6,9,12-tetraazabicyclo+11.3.1+heptadecane-2,5,8,11-tetraone], the IC50 was 572 pM and the Max % inhibition was 103.6%.

Turning to `COC[C@@H]1NC(=O)[C@H](C)N(Cc2ccc(Cl)cc2Oc2ccc(-c3cnc(CN4CCC(O)CC4)n3C)cc2)C(=O)C[C@@H](Cc2ccccc2)C(=O)N2CCC[C@@](Cc3ccc(Cl)cc3)(C2)NC1=O.Cl` [Compound 61], the concentration for half-maximal inhibition (IC50) was found to be 623 pM and the Max % inhibition was determined as 109.3%.

On to `C[C@H]1C(=O)N[C@@H](CO)C(=O)N[C@@]2(Cc3ccc(Cl)cc3)CCCN(C2)C(=O)[C@H](Cc2ccc(C(F)(F)F)cc2)CC(=O)N1Cc1ccc(Cl)cc1Oc1ccc(-c2cnc(CN(C)C)n2C)cc1` [Compound 62, (3R, 7S, 10S, 13R)-6-(4-chloro-2-(4-(2-((dimethylamino)methyl)-1-methyl-1H-imidazol-5-yl)phenoxy)benzyl)-13-(4-chlorobenzyl)-10-(hydroxymethyl)-7-methyl-3-(4-(trifluoromethyl)benzyl)-1,6,9,12-tetraazabicyclo[11.3.1]heptadecane-2,5,8,11-tetraone], for which the IC50 was 963 pM and the Max % inhibition was determined as 110.7%.

`CC[C@@H]1CC(=O)N(Cc2c(F)cc(Cl)cc2Oc2ccc(-c3cnc(CN(C)C)n3C)cc2)[C@@H](C)C(=O)N[C@@H](COC)C(=O)N[C@@]2(Cc3ccc(Cl)cc3)CCCN(C2)C1=O` [Compound 63]: the half-inhibitory concentration (IC50) worked out at 851 pM and the Max % inhibition worked out at 117.9%.

Take `C[C@H](O)[C@@H]1NC(=O)[C@H](C)N(Cc2ccc(Cl)cc2Oc2ccc(-c3cnc(CN(C)C)n3C)cc2)C(=O)C[C@@H](CC(F)(F)F)C(=O)N2CCC[C@@](Cc3ccc(Cl)cc3)(C2)NC1=O` [Compound 64, (3S,7S,10S,13R)-6-(4-chloro-2-(4-(2-((dimethylamino)methyl)-1-methyl-1H-imidazol-5-yl)phenoxy)benzyl)-13-(4-chlorobenzyl)-10-((S)-1-hydroxyethyl)-7-methyl-3-(2,2,2-trifluoroethyl)-1,6,9,12-tetraazabicyclo[11.3.1]heptadecane-2,5,8,11-tetraone]: the IC50 was found to be 1160 pM and the Max % inhibition came out at 99.7%.

Consider `COC[C@@H]1NC(=O)[C@H](C)N(Cc2ccc(Cl)cc2Oc2ccc(-c3cnc(CN(C)C)n3C)cc2)C(=O)C[C@@H](Cc2ccccc2)C(=O)N2CCC[C@@](Cc3ccc(Cl)cc3)(C2)N(C)C1=O` [Compound 65, (3R, 7S, 10S, 13R)-3-benzyl-6-(4-chloro-2-(4-(2-((dimethylamino)methyl)-1-methyl-1H-imidazol-5-yl)phenoxy)benzyl)-13-(4-chlorobenzyl)-10-(methoxymethyl)-7,12-dimethyl-1,6,9,12-tetraazabicyclo[11.3.]heptadecane-2,5,8,11-tetraone], for which the IC50 came out at 621 pM and the Max % inhibition is listed as 109.2%.

For the molecule `C[C@H]1C(=O)N[C@@H](CO)C(=O)N[C@@]2(Cc3ccc(Cl)cc3)CCCN(C2)C(=O)[C@H](Cc2cccc[n+]2[O-])CC(=O)N1Cc1ccc(Cl)cc1Oc1ccc(-c2cnc(CN(C)C)n2C)cc1` [Compound 66, 2-(((3R,7S,10S,13R)-6-(4-Chloro-2-(4-(2-((dimethylamino)methyl)-1-methyl-1H-imidazol-5-yl)phenoxy)benzyl)-13-(4-chlorobenzyl)-10-(hydroxymethyl)-7-methyl-2,5,8,11-tetraoxo-1,6,9,12-tetraazabicyclo[11.3.1]heptadecan-3-yl)methyl)pyridine 1-oxide], the 50% inhibitory concentration (IC50) was 673 pM and the Max % inhibition stood at 104.2%.

For `CC(C)[C@@H]1NC(=O)N(Cc2ccc(Cl)cc2Oc2ccc(-c3cnc(CN(C)C)n3C)cc2)[C@@H](C)C(=O)N[C@@H](CO)C(=O)N[C@@]2(Cc3ccc(Cl)cc3)CCCN(C2)C1=O.Cl` [Compound 67, (3S, 7S, 10S, 13R)-6-(4-chloro-2-(4-(2-((dimethylamino)methyl)-1-methyl-1H-imidazol-5-yl)phenoxy)benzyl)-13-(4-chlorobenzyl)-10-(hydroxymethyl)-3-isopropyl-7-methyl-1,4,6,9,12-pentaazabicyclo[11.3.1]heptadecane-2,5,8,11-tetraone], the IC50 is 334 pM and the Max % inhibition is recorded as 104.2%.

With `C[C@H]1C(=O)N[C@@H](CO)C(=O)N[C@@]2(Cc3ccc(Cl)cc3)CCCN(C2)C(=O)[C@H]([C@H]2CCc3ccccc32)CC(=O)N1Cc1ccc(Cl)cc1Oc1ccc(-c2cnc(CN3CCCC3)n2C)cc1.Cl` [Compound 68, (3S,7S,10S,13R)-6-(4-chloro-2-(4-(1-methyl-2-(pyrrolidin-1-ylmethyl)-1H-imidazol-5-yl)phenoxy)benzyl)-13-(4-chlorobenzyl)-3-((R)-2,3-dihydro-1H-inden-1-yl)-10-(hydroxymethyl)-7-methyl-1,6,9,12-tetraazabicyclo[11.3.1]heptadecane-2,5,8,11-tetraone hydrochloride], the IC50 was 1620 pM and the Max % inhibition stood at 95.0%.

As to `C[C@H]1C(=O)N[C@@H](CO)C(=O)N[C@@]2(Cc3ccc(Cl)cc3)CCCN(C2)C(=O)[C@H]([C@@H]2CCc3ccccc32)CC(=O)N1Cc1ccc(Cl)cc1Oc1ccc(-c2cnc(C3CN(C)C3)n2C)cc1` [Compound 69, (3S, 7S, 10S, 13R)-6-(4-chloro-2-(4-(1-methyl-2-(1-methylazetidin-3-yl)-1H-imidazol-5-yl)phenoxy)benzyl)-13-(4-chlorobenzyl)-3-((S)-2,3-dihydro-1H-inden-1-yl)-10-(hydroxymethyl)-7-methyl-1,6,9,12-tetraazabicyclo[11.3.1]heptadecane-2,5,8,11-tetraone], the 50% inhibitory concentration (IC50) is 781 pM and the Max % inhibition is given as 70.1%.

`C[C@H](c1ncc(-c2ccc(Oc3cc(Cl)ccc3CN3C(=O)C[C@@H]([C@@H]4CCc5ccccc54)C(=O)N4CCC[C@@](Cc5ccc(Cl)cc5)(C4)NC(=O)[C@H](CO)NC(=O)[C@@H]3C)cc2)n1C)N(C)C.Cl` [Compound 70, (3S, 7S,10S, 13R)-6-(4-chloro-2-(4-(2-((R)-1-(dimethylamino)ethyl)-1-methyl-1H-imidazol-5-yl)phenoxy)benzyl)-13-(4-chlorobenzyl)-3-((S)-2,3-dihydro-1H-inden-1-yl)-10-(hydroxymethyl)-7-methyl-1,6,9,12-tetraazabicyclo[11.3.1]heptadecane-2,5,8,11-tetraone]: the half-maximal inhibitory concentration (IC50) came out at 1480 pM and the Max % inhibition is 110.7%.

In the case of `C[C@H]1C(=O)N[C@@H](CO)C(=O)N(C)[C@@]2(Cc3ccc(Cl)cc3)CCCN(C2)C(=O)[C@H](Cc2ccccc2)CC(=O)N1Cc1ccc(Cl)cc1Oc1ccc(-c2cnc(CN(C)C)n2C)nc1` [Compound 71], the 50% inhibitory concentration (IC50) is 754 pM and the Max % inhibition amounted to 102.6%.

On to `COC[C@@H]1NC(=O)[C@H](C)N(Cc2ccc(Cl)cc2Oc2ccc(-c3cnc(CN4CC[C@H](N(C)C)C4)n3C)cc2)C(=O)C[C@@H](Cc2ccccc2)C(=O)N2CCC[C@@](Cc3ccc(Cl)cc3)(C2)NC1=O.Cl` [Compound 72, (3R, 7S, 10S, 13R)-3-benzyl-6-(4-chloro-2-(4-(2-(((S)-3-(dimethylamino)pyrrolidin-1-yl)methyl)-1-methyl-1H-imidazol-5-yl)phenoxy)benzyl)-13-(4-chlorobenzyl)-10-(methoxymethyl)-7-methyl-1,6,9,12-tetraazabicyclo[11.3.1]heptadecane-2,5,8,11-tetraone], for which the half-inhibitory concentration (IC50) was determined as 837 pM and the Max % inhibition turned out to be 100.1%.

Regarding `C[C@H]1C(=O)N[C@@H](CO)C(=O)N[C@@]2(Cc3ccc(Cl)cc3)CCCN(C2)C(=O)[C@H]([C@@H]2CCc3ccccc32)CC(=O)N1Cc1cc(F)ccc1Oc1ccc(-c2cnc(CN(C)C)n2C)cc1` [Compound 73], the half-inhibitory concentration (IC50) is 1360 pM and the Max % inhibition worked out at 95.0%.

As to `C[C@H]1C(=O)N[C@@H](CO)C(=O)N[C@@]2(Cc3ccc(Cl)cc3)CCCN(C2)C(=O)[C@H]([C@@H]2CCc3ccccc32)CC(=O)N1Cc1ccc(Cl)cc1Oc1ccc(-c2cnc(CN3CCCC3)n2C)cc1.Cl` [Compound 74, (3S, 7S, 10S, 13R)-6-(4-chloro-2-(4-(1-methyl-2-(pyrrolidin-1-ylmethyl)-1H-imidazol-5-yl)phenoxy)benzyl)-13-(4-chlorobenzyl)-3-((S)-2,3-dihydro-1H-inden-1-yl)-10-(hydroxymethyl)-7-methyl-1,6,9,12-tetraazabicyclo[11.3.1]heptadecane-2,5,8,11-tetraone], the IC50 was found to be 1730 pM and the Max % inhibition is reported as 99.1%.

Consider `C[C@H]1C(=O)N[C@@H](CO)C(=O)N[C@@]2(Cc3ccc(Cl)cc3)CCCN(C2)C(=O)[C@H](Cc2ccccc2)CC(=O)N1Cc1c(F)cc(F)cc1Oc1ccc(-c2cnc(CN3CCCC3)n2C)cc1` [Compound 75, (3R, 7S, 10S, 13R)-3-benzyl-13-(4-chlorobenzyl)-6-(2,4-difluoro-6-(4-(1-methyl-2-(pyrrolidin-1-ylmethyl)-1H-imidazol-5-yl)phenoxy)benzyl)-10-(hydroxymethyl)-7-methyl-1,6,9,12-tetraazabicyclo[11.3.1]heptadecane-2,5,8,11-tetraone], for which the IC50 was determined as 758 pM and the Max % inhibition is 113.3%.
